Source: ChEMBL document CHEMBL1146865, “Synthesis and antifungal activity of a novel series of alkyldimethylamine cyanoboranes and their derivatives” (J Med Chem, 2006)
Converted amounts (≈) assume the structure as drawn.

Columns and labels:
Candida albicans [1] = assay: microbe, parasite or virus in culture; assay type: functional
Description: Antifungal activity against Candida albicans 615

Candida albicans [2] = assay: microbe, parasite or virus in culture; assay type: functional; settings: CBS 562
Description: Antifungal activity against Candida albicans CBS 562

Candida albicans [3] = assay: microbe, parasite or virus in culture; assay type: functional; remark: listed apart in the source
Description: Antifungal activity against Candida albicans 607

Aspergillus fumigatus = assay: microbe, parasite or virus in culture; assay type: functional; settings: ATCC 64026
Description: Antifungal activity against Aspergillus fumigatus ATCC 64026

Pichia kudriavzevii [4] = assay: microbe, parasite or virus in culture; assay type: functional
Description: Antifungal activity against Candida krusei 638

Nakaseomyces glabratus [5] = assay: microbe, parasite or virus in culture; assay type: functional
Description: Antifungal activity against Candida glabrata 646

Nakaseomyces glabratus [6] = assay: microbe, parasite or virus in culture; assay type: functional; remark: listed apart in the source
Description: Antifungal activity against Candida glabrata 578

Pichia kudriavzevii [7] = assay: microbe, parasite or virus in culture; assay type: functional; remark: listed apart in the source
Description: Antifungal activity against Candida krusei 603

Nakaseomyces glabratus [8] = assay: microbe, parasite or virus in culture; assay type: functional; remark: listed apart in the source
Description: Antifungal activity against Candida glabrata 572

[9] = Toxicity in ICR mouse at 1 to 2 mg/ml, iv after 8 days; settings: in vivo
Nakaseomyces glabratus [10] = assay: microbe, parasite or virus in culture; assay type: functional; remark: listed apart in the source
Description: Antifungal activity against Candida glabrata 566

Nakaseomyces glabratus [11] = assay: microbe, parasite or virus in culture; assay type: functional; remark: listed apart in the source
Description: Antifungal activity against Candida glabrata 648

Compound: BC#N.CCCCCCCCCCCCN(C)C [DODECYLDIMETHYLAMINE CYANOBORANE]
- MIC (Candida albicans [1]): 61 µM
- MIC (Candida albicans [2]): 61 µM
- MIC (Candida albicans [3]): 61 µM

Compound: CN(C)CCCCCCCCCCN(C)C.N#CB(Br)Br.N#CB(Br)Br
- MIC (Candida albicans [1]): 104 µM
- MIC (Candida albicans [2]): 104 µM
- MIC (Candida albicans [3]): 104 µM

Compound: BC(=O)O.BC(=O)O.CN(C)CCCCCCCCCCN(C)C
- MIC (Candida albicans [1]): 907 µM
- MIC (Candida albicans [2]): 188 µM
- MIC (Candida albicans [3]): 188 µM

Compound: CN(C)CCCCCCCCCCN(C)C.N#CBBr.N#CBBr
- MIC (Candida albicans [1]): 140 µM
- MIC (Candida albicans [2]): 140 µM
- MIC (Candida albicans [3]): 140 µM

Compound: CCCCCCCCCCCN(C)C.N#CBBr
- MIC (Candida albicans [1]): 49 µM
- MIC (Candida albicans [2]): 49 µM
- MIC (Candida albicans [3]): 49 µM
- MIC (Aspergillus fumigatus): 131 µM

Compound: OC(Cn1cncn1)(Cn1cncn1)c1ccc(F)cc1F [FLUCONAZOLE]
- MIC (Candida albicans [1]): 1.6 µM (≈ 0.49 µg/mL)
- MIC (Pichia kudriavzevii [4]): 104 µM (≈ 32 µg/mL)
- MIC (Candida albicans [2]): 1.6 µM (≈ 0.49 µg/mL)
- MIC (Nakaseomyces glabratus [5]): 52.2 µM (≈ 16 µg/mL)
- MIC (Candida albicans [3]): 1.6 µM (≈ 0.49 µg/mL)
- MIC (Aspergillus fumigatus): > 208 µM
- MIC (Nakaseomyces glabratus [6]): > 836 µM
- MIC (Pichia kudriavzevii [7]): 104 µM (≈ 32 µg/mL)
- MIC (Nakaseomyces glabratus [8]): > 836 µM

Compound: CCCCCCCCCCCN(C)C.N#CBF
- MIC (Candida albicans [1]): 64 µM
- MIC (Candida albicans [2]): 64 µM
- MIC (Candida albicans [3]): 64 µM
- MIC (Aspergillus fumigatus): 129 µM

Compound: CCCCCCCCCCCN(C)C.N#CB(Br)Br
- MIC (Candida albicans [1]): 39 µM
- MIC (Pichia kudriavzevii [4]): 10.1 µM
- MIC (Candida albicans [2]): 39 µM
- MTD at 192 h [9]: 73.1 µmol/kg
- MIC (Nakaseomyces glabratus [5]): 20.2 µM
- MIC (Candida albicans [3]): 39 µM
- MIC (Nakaseomyces glabratus [10]): 20.2 µM
- MIC (Aspergillus fumigatus): 79 µM
- MIC (Nakaseomyces glabratus [6]): 40.4 µM
- MIC (Pichia kudriavzevii [7]): 10.1 µM
- MIC (Nakaseomyces glabratus [8]): 40.4 µM
- MIC (Nakaseomyces glabratus [11]): 20.2 µM

Compound: CN(C)C.N#CB(Br)Br [DIBROMOBORANECARBONITRILE; TRIMETHYLAMINE]
- MIC (Candida albicans [1]): > 1970 µM
- MIC (Candida albicans [2]): 1970 µM
- MIC (Candida albicans [3]): > 1970 µM

Compound: BC#N.CN(C)C
- MIC (Candida albicans [1]): > 5100 µM
- MIC (Candida albicans [2]): 5100 µM
- MIC (Candida albicans [3]): > 5100 µM
- MIC (Aspergillus fumigatus): > 5100 µM

Compound: C[C@@H]1[C@H](O)[C@@H](C)/C=C/C=C/C=C/C=C/C=C/C=C/C=C/[C@H](O[C@@H]2O[C@H](C)[C@@H](O)[C@H](N)[C@@H]2O)C[C@@H]2O[C@](O)(C[C@@H](O)C[C@@H](O)[C@H](O)CC[C@@H](O)C[C@@H](O)CC(=O)O[C@H]1C)C[C@H](O)[C@H]2C(=O)O [AMPHOTERICIN B]
- MIC (Candida albicans [1]): 0.27 µM (≈ 0.25 µg/mL)
- MIC (Pichia kudriavzevii [4]): 4.32 µM (≈ 3.99 µg/mL)
- MIC (Candida albicans [2]): 0.54 µM (≈ 0.499 µg/mL)
- MTD at 192 h [9]: 2.6 µmol/kg
- MIC (Nakaseomyces glabratus [5]): 0.41 µM (≈ 0.379 µg/mL)
- MIC (Candida albicans [3]): 0.27 µM (≈ 0.25 µg/mL)
- MIC (Nakaseomyces glabratus [10]): 0.13 µM (≈ 0.12 µg/mL)
- MIC (Aspergillus fumigatus): 0.5 µM (≈ 0.462 µg/mL)
- MIC (Nakaseomyces glabratus [6]): 2.14 µM (≈ 1.98 µg/mL)
- MIC (Pichia kudriavzevii [7]): 4.32 µM (≈ 3.99 µg/mL)
- MIC (Nakaseomyces glabratus [8]): 1.07 µM (≈ 0.989 µg/mL)
- MIC (Nakaseomyces glabratus [11]): 0.82 µM (≈ 0.758 µg/mL)
